Source: ChEMBL document CHEMBL1949604, “Drug-like properties: guiding principles for the design of natural product libraries” (J Nat Prod, 2012)

Key:
[1] = tested on: Trypanosoma brucei brucei; experiment: Antitrypanosomal activity against Trypanosoma brucei brucei at 80 uM; assay type: functional
[2] = tested on: Trypanosoma brucei brucei; experiment: Antitrypanosomal activity against Trypanosoma brucei brucei; assay type: functional, organism-based

Row | SMILES | inhibition at 80 µM [1] | IC50 [2]
1 | COC1=C(Br)[C@H](O)[C@@]2(C=C1Br)CC(C(=O)NCCCn1cnc(CCNC(=O)C3=NO[C@]4(C=C(Br)C(OC)=C(Br)[C@@H]4O)C3)c1)=NO2 [PSEUDOCERATINAZOLE A] | 80% | –
2 | c1ccc2c(c1)Nc1cc3cccnc3c3nccc-2c13 | – | 0.077 µM
3 | O=C1c2cccnc2-c2nccc3c2c1nc1ccccc13 [ASCIDIDEMIN] | – | 0.032 µM
4 | c1ccc2c(c1)nc1c3nc4ccccc4c4ccnc(c5nccc2c51)c43 [EILATIN] | – | 1.33 µM
